Data from PubChem BioAssay AID248 (DTP/NCI, 2004).
Inconclusive results and toxic doses are left out. Rule as the data show it: active = T/C of 150% or more; inactive = T/C below 125%. Peptide text beside a SMILES is read from it. * marks the point of attachment. Cbz = O=C(OCc1ccccc1)*

System: L1210 leukemia ip in BDF1 mice, survival T/C
Assay: NCI In Vivo Anticancer Drug Screen. Data for tumor model L1210 Leukemia (intraperitoneal) in B6D2F1 (BDF1) mice
Details: endpoint: mean survival time, higher = longer survival
In short: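 Ratio derived from survival: compound-dosed mice over vehicle-dosed mice, all bearing a transplantable tumor.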

[1] = dose: 100.0 mg/kg/injection, schedule: Q04DX003 (ip), vehicle: saline with Tween-80
[2] = dose: 200.0 mg/kg/injection, schedule: Q04DX003 (ip), vehicle: saline with Tween-80
[3] = dose: 400.0 mg/kg/injection, schedule: Q04DX003 (ip), vehicle: saline with Tween-80
[4] = dose: 100.0 mg/kg/injection, schedule: Q04DX003 (ip), vehicle: Klucel (hydroxypropylcellulose) (HPC)
[5] = dose: 200.0 mg/kg/injection, schedule: Q04DX003 (ip), vehicle: Klucel (hydroxypropylcellulose) (HPC)
[6] = dose: 400.0 mg/kg/injection, schedule: Q04DX003 (ip), vehicle: Klucel (hydroxypropylcellulose) (HPC)
[7] = dose: 75.0 mg/kg/injection, schedule: Q01DX001 (ip), vehicle: saline
[8] = dose: 100.0 mg/kg/injection, schedule: Q04DX003 (ip), vehicle: saline
[9] = dose: 200.0 mg/kg/injection, schedule: Q04DX003 (ip), vehicle: saline
[10] = dose: 25.0 mg/kg/injection, schedule: Q04DX003 (ip), vehicle: saline
[11] = dose: 50.0 mg/kg/injection, schedule: Q04DX003 (ip), vehicle: saline
[12] = dose: 25.0 mg/kg/injection, schedule: Q01DX009 (ip), vehicle: saline with Tween-80
[13] = dose: 50.0 mg/kg/injection, schedule: Q01DX009 (ip), vehicle: saline with Tween-80
[14] = dose: 100.0 mg/kg/injection, schedule: Q01DX009 (ip), vehicle: saline with Tween-80

Measured: T/C

CC1CC=CCC1COC(OCC1CC=CCC1C)C1CC=CCC1C (stereo unspecified)
inactive: dose: 100.0 mg/kg/injection, schedule: Q01DX009 (ip), vehicle: other 93 % of control | dose: 100.0 mg/kg/injection, schedule: Q04DX003 (ip), vehicle: other 100 % of control | dose: 200.0 mg/kg/injection, schedule: Q01DX009 (ip), vehicle: other 98 % of control | dose: 200.0 mg/kg/injection, schedule: Q04DX003 (ip), vehicle: other 98 % of control | dose: 400.0 mg/kg/injection, schedule: Q01DX009 (ip), vehicle: other 93 % of control | dose: 400.0 mg/kg/injection, schedule: Q04DX003 (ip), vehicle: other 96 % of control

CCCCCCCCCCCCC[n+]1cccc(C#N)c1
inactive: dose: 5.0 mg/kg/injection, schedule: Q04DX003 (ip), vehicle: saline 100 % of control | dose: 10.0 mg/kg/injection, schedule: Q01DX001 (ip), vehicle: saline 94 % of control | dose: 10.0 mg/kg/injection, schedule: Q04DX003 (ip), vehicle: saline 96 % of control | dose: 20.0 mg/kg/injection, schedule: Q01DX001 (ip), vehicle: saline 103 % of control | dose: 20.0 mg/kg/injection, schedule: Q04DX003 (ip), vehicle: saline 96 % of control

O=C(OC1c2ccccc2-c2ccccc21)c1cc([N+](=O)[O-])cc([N+](=O)[O-])c1
inactive: dose: 100.0 mg/kg/injection, schedule: Q04DX002 (ip), vehicle: saline 97 % of control | dose: 200.0 mg/kg/injection, schedule: Q04DX002 (ip), vehicle: saline 97 % of control | dose: 400.0 mg/kg/injection, schedule: Q04DX002 (ip), vehicle: saline 90 % of control

COC(=O)C(NC(=O)C1CCCN1C(=O)OCc1ccccc1)C(C)C (stereo not drawn) (Cbz-Pro-Val-OMe; configuration not given here)
inactive: dose: 25.0 mg/kg/injection, schedule: Q04DX003 (ip), vehicle: saline with Tween-80 95 % of control | dose: 50.0 mg/kg/injection, schedule: Q04DX003 (ip), vehicle: saline with Tween-80 95 % of control | [1] 106 % of control | [2] 95 % of control | [3] 94 % of control

O=C1CCC(NC(=O)C(F)(F)F)C(=O)O1 (stereo unspecified)
inactive: [4] 101 % of control | [5] 94 % of control | [6] 92 % of control

CCC(c1ccc(OC)cc1)C(CC)c1ccc(O)c(CN2CCN(C)CC2)c1 (stereo unspecified)
inactive: [1] 94 % of control | [2] 94 % of control | [3] 94 % of control

CCOP(=S)(N1CCNCC1)N1CCNCC1
inactive: [7] 90 % of control | dose: 75.0 mg/kg/injection, schedule: Q01DX009 (ip), vehicle: Klucel (hydroxypropylcellulose) (HPC) 95 % of control | dose: 150.0 mg/kg/injection, schedule: Q01DX001 (ip), vehicle: saline 92 % of control | dose: 150.0 mg/kg/injection, schedule: Q01DX009 (ip), vehicle: Klucel (hydroxypropylcellulose) (HPC) 120 % of control | dose: 300.0 mg/kg/injection, schedule: Q01DX001 (ip), vehicle: saline 100 % of control

CC(C)/C([O-])=N\[N+](C)(C)Cc1ccccc1
inactive: [8] 105 % of control | [9] 100 % of control | dose: 400.0 mg/kg/injection, schedule: Q04DX003 (ip), vehicle: saline 98 % of control

FC(F)(F)c1nc2ccccc2[nH]1
inactive: dose: 50.0 mg/kg/injection, schedule: Q04DX002 (ip), vehicle: Klucel (hydroxypropylcellulose) (HPC) 86 % of control | dose: 100.0 mg/kg/injection, schedule: Q04DX002 (ip), vehicle: Klucel (hydroxypropylcellulose) (HPC) 100 % of control | dose: 200.0 mg/kg/injection, schedule: Q04DX002 (ip), vehicle: Klucel (hydroxypropylcellulose) (HPC) 93 % of control

c1ccc(C(CN2CCCCC2)c2ccccc2)cc1
inactive: dose: 44.0 mg/kg/injection, schedule: Q01DX Z (ip), vehicle: methylcellulose (MC) 93 % of control | dose: 66.0 mg/kg/injection, schedule: Q01DX Z (ip), vehicle: methylcellulose (MC) 96 % of control | dose: 100.0 mg/kg/injection, schedule: Q01DX Z (ip), vehicle: methylcellulose (MC) 105 % of control

O=[N+]([O-])c1ccc(-c2ccccc2)c([As](=O)(O)O)c1
inactive: dose: 25.0 mg/kg/injection, schedule: Q04DX002 (ip), vehicle: saline with Tween-80 106 % of control

O[C@H](c1cc(C(F)(F)F)nc2c(C(F)(F)F)cccc12)[C@@H]1CCCCN1
inactive: dose: 12.5 mg/kg/injection, schedule: Q01DX009 (ip), vehicle: Klucel (hydroxypropylcellulose) (HPC) 94 % of control | dose: 12.5 mg/kg/injection, schedule: Q04DX003 (ip), vehicle: saline 98 % of control | dose: 25.0 mg/kg/injection, schedule: Q01DX009 (ip), vehicle: Klucel (hydroxypropylcellulose) (HPC) 103 % of control | [10] 98 % of control | [11] 97 % of control

NNc1c(F)c(F)c(NN)c(F)c1F
inactive: dose: 6.25 mg/kg/injection, schedule: Q04DX003 (ip), vehicle: Klucel (hydroxypropylcellulose) (HPC) 96 % of control | dose: 12.5 mg/kg/injection, schedule: Q04DX003 (ip), vehicle: Klucel (hydroxypropylcellulose) (HPC) 93 % of control | dose: 25.0 mg/kg/injection, schedule: Q04DX003 (ip), vehicle: Klucel (hydroxypropylcellulose) (HPC) 95 % of control

Cc1ccc(NS(=O)(=O)c2ccc(F)cc2)cc1Cl
inactive: dose: 100.0 mg/kg/injection, schedule: Q01DX009 (ip), vehicle: Klucel (hydroxypropylcellulose) (HPC) 92 % of control | [4] 100 % of control | dose: 200.0 mg/kg/injection, schedule: Q01DX009 (ip), vehicle: Klucel (hydroxypropylcellulose) (HPC) 95 % of control | [5] 97 % of control | dose: 400.0 mg/kg/injection, schedule: Q01DX009 (ip), vehicle: Klucel (hydroxypropylcellulose) (HPC) 95 % of control | [6] 97 % of control

CCOP(=O)(NC=S)OCC
inactive: [7] 96 % of control

CCCCCC(C)SC#N (stereo unspecified)
inactive: [12] 107 % of control | [13] 102 % of control | [14] 88 % of control

CCC(C)(CC)OC(N)=O
inactive: dose: 12.5 mg/kg/injection, schedule: Q01DX009 (ip), vehicle: saline with Tween-80 100 % of control | [12] 102 % of control | [10] 100 % of control | [13] 94 % of control | [11] 100 % of control | [14] 105 % of control | [8] 102 % of control | dose: 200.0 mg/kg/injection, schedule: Q01DX009 (ip), vehicle: saline with Tween-80 93 % of control | [9] 96 % of control

COc1cc2ccc(C(C)N)cc2cc1OC (stereo unspecified)
inactive: dose: 50.0 mg/kg/injection, schedule: Q01DX009 (ip), vehicle: saline 100 % of control | dose: 100.0 mg/kg/injection, schedule: Q01DX009 (ip), vehicle: saline 105 % of control | [8] 110 % of control | dose: 200.0 mg/kg/injection, schedule: Q01DX009 (ip), vehicle: saline 103 % of control | [9] 117 % of control

CCCCCCCCCCS(=O)(=O)CC(=O)O
inactive: [4] 100 % of control | [1] 100 % of control | [5] 90 % of control | [2] 98 % of control

CN1C2CCC1CC(OC(c1ccccc1)c1ccccc1)C2 (stereo unspecified)
inactive: dose: 3.12 mg/kg/injection, schedule: Q01DX009 (ip), vehicle: saline 95 % of control | dose: 5.0 mg/kg/injection, schedule: Q01DX009 (ip), vehicle: saline 92 % of control | dose: 6.25 mg/kg/injection, schedule: Q01DX009 (ip), vehicle: saline 97 % of control | dose: 10.0 mg/kg/injection, schedule: Q01DX009 (ip), vehicle: saline 103 % of control | dose: 12.5 mg/kg/injection, schedule: Q01DX009 (ip), vehicle: saline 103 % of control | dose: 17.0 mg/kg/injection, schedule: Q01DX009 (ip), vehicle: saline 95 % of control | dose: 20.0 mg/kg/injection, schedule: Q01DX009 (ip), vehicle: saline 90 % of control | dose: 25.0 mg/kg/injection, schedule: Q01DX009 (ip), vehicle: saline 109 % of control | dose: 55.0 mg/kg/injection, schedule: Q01DX001 (ip), vehicle: saline 98 % of control

Cc1cc(C)c(N(CC(=O)O)S(=O)(=O)c2ccccc2)c(C)c1Cl
inactive: dose: 50.0 mg/kg/injection, schedule: Q01DX001 (ip), vehicle: Klucel (hydroxypropylcellulose) (HPC) 100 % of control | dose: 100.0 mg/kg/injection, schedule: Q01DX001 (ip), vehicle: Klucel (hydroxypropylcellulose) (HPC) 86 % of control | dose: 200.0 mg/kg/injection, schedule: Q01DX001 (ip), vehicle: Klucel (hydroxypropylcellulose) (HPC) 91 % of control

CCC(CO)(CO)[N+](=O)[O-]
inactive: [1] 95 % of control | [2] 91 % of control | [3] 91 % of control
